Test results: publication PMC1166555, “The therapeutic effect of the neuropeptide hormone somatostatin on Schistosoma mansoni caused liver fibrosis” (BMC Infectious Diseases, 2005)
Read-outs that look alike come from different tables or passages of the source.

Tests used:
[1] = system: S. mansoni; conditions: S. mansoni infected animals; cited from earlier work
Description: Taken together we have elucidated the therapeutic capacity of somatostatin in reducing hepatic fibrosis. This report in fact confirms a previous report by Mansy, where using a somatostatin synthetic analog octreotide in S. mansoni infected animals, a reduction in hepatic fibrosis was noted. Since octreotide is limited in binding to somatostatin receptors, our results with natural somatostatin that binds to all 5 somatostatin receptors equally well assures us of the anti fibrotic capacities of this neuropeptide hormone, and points to its potential use in human conditions.

[2] = Pharmacokinetic profile of somatostatin in outbred Swiss mice (plasma, RIA); assay type: in vivo; conditions: male Swiss mice; for level at 10 min: Swiss (outbred), 25 ug per mouse, 10 minutes post injection, plasma
Procedure: Separate groups of male Swiss mice were injected with 25 μg of somatostatin (somatostatin-ucb®, UCB Pharma, Brussels) intraperitoneally (in the abdomen) or intravenously (in the caudal vein in the tail). At defined moments after injection (10, 20, 40, 60 minutes) the animals were anaesthetized with Nembutal® (60 mg/kg). The thoracic cavity was cut open and blood collected from the right ventricle of the heart into chilled syringes containing EDTA (1 mg/ml) and Aprotinin (500 KIU/ml blood). The collected blood was centrifuged at 3000 rpm for 15 minutes at 0°C. The plasma was immediately frozen at -80°C freezer. Untreated naïve mice were also bled to ascertain background levels of somatostatin.
(§1) The measurement of somatostatin concentrations in the Swiss mice plasma was carried out in the laboratory of Gastro-intestinal Hormones, at Gasthuisberg, K.U. Leuven, by means of a radio-immuno assay (RIA). The RIA was performed by incubating the samples with 1.7 pM 3-[^125I] iodotyrosyl^11 somatostatin-14 (specific activity 2000 Ci/mmol, Amersham Pharmacia Biotech, Buckinghamshire, UK) and a rabbit antibody against human SOM [1-14] in a 50 mM sodium phosphate buffer (pH 7.4, 0.25% EDTA, 0.5% charcoal-BSA, 500 U/ml Trasylol) for at least two days at 4°C. At the end of the incubation period the SOM bound to the antibody was separated from the free SOM by adding 500 μl dextran-charcoal followed by centrifugation for 15 min at 3000 rpm. Both fractions were counted in a gamma counter and the results were read from a standard curve (0–250 pg/ml) included in the RIA. The minimal detectable dose was 2.5 pg/ml.
Somatostatin has a very short half-life of 1–3 minutes in man. […] To determine the pharmacokinetic profile in outbred Swiss mice, 25 μg of somatostatin was administered per mouse via the intraperitoneal or intravenous route. To assess the break down in these mice, plasma was collected at regular time intervals and circulating somatostatin levels assayed (Figure 2). At 10 minutes post injection somatostatin levels fall to 30233 pg/ml (IP) and 17413 pg/ml (IV).

[3] = dogs, animal studies; cited from earlier work
Procedure: Somatostatin has a very short half-life of 1–3 minutes in man. […] To determine the pharmacokinetic profile in outbred Swiss mice, 25 μg of somatostatin was administered per mouse via th ...

[4] = Liver, spleen and total body weight after somatostatin treatment; assay type: in vivo, Swiss mice
Procedure: (§2) Groups of Swiss mice were infected with 100 S. mansoni cercariae each as mentioned above. Age matched mice were maintained as uninfected control animals. Groups of 10 mice composed Group 1 that were maintained till 10 weeks following infection, other 10 mice composed Group 2 that were maintained till 14 weeks of infection.
(§3) At such times animals of Groups 1 and 2 were treated with somatostatin (Somatostatine-ucb®), that was kindly gifted by UCB Pharma, Brussels. Somatostatin was administered in two regimens – a one-day treatment or a two-day treatment. One day treatment consisted of 3 doses of 30 μg somatostatin each, two day treatment was the double of this dose, that is 6 doses of 30 μg somatostatin to each animal. Somatostatin was administered intravenously via the caudal vein in the tail and intraperitoneally at regular intervals during the day. One week after the last somatostatin administration, mice were killed, the weight of the animal, liver and spleen were noted, plasma was extracted and stored as mentioned above, and the liver frozen immediately in liquid nitrogen and then at -80°C. The overall planning is depicted in Table 1. Untreated animals of the acute and chronic stage were also sacrificed at the respective times together with their treated counterparts. Research protocols involving rodents received ethical clearance by the University of Antwerp ethical committee.
All animals of Groups I and II were controlled for liver, spleen and total body weight, before sacrifice. The adult worms were recovered from the hepatic portal system and the liver by perfusion with citrate saline (0.85% sodium chloride; 1.5% sodium citrate). The livers were cut out and snap frozen in liquid nitrogen. For cyosectioning, liver fragments were embedded in Tissue-Tek OCT compound, 4 μm thick transverse sections were cut on a cryostat, mounted on slides coated with 0.1% ploy-L-lysine and stored at -20°C until use. To study parasite egg count, hepatocyte status, granuloma size and cellularity, series of sections were stained with Haematoxylin-eosin stain.

[5] = rats; cited from earlier work
[6] = studies in mice; cited from earlier work
Procedure: The favorable metabolic profile of somatostatin is further supported by the fact that this compound has a very short half-life, and thus any undesirable effects may be rapidly reversed. In our experiment we have used 90 μg/24 hours in the Swiss mice that weighs about 40 g. In humans the therapeutic dose is 3.5 μg/kg/hour or 6 mg/24 h for a 75 kg person. A comparison of these values tells ...

[7] = Circulating somatostatin levels in plasma at sacrifice, one week after therapy (RIA); assay type: in vivo, Swiss mice; conditions: for level at 168 h: Swiss, mouse, plasma
Procedure: as §2, §3, §1

[8] = cited from earlier work
[9] = Toxicity of somatostatin administration in the study mice; assay type: in vivo; conditions: Swiss mice, 90 μg/24 hours, mice about 40 g
Procedure: as §3
The favorable metabolic profile of somatostatin is further supported by the fact that this compound has a very short half-life, and thus any undesirable effects may be rapidly reversed. In our experiment we have used 90 μg/24 hours in the Swiss mice that weighs about 40 g. […]

[10] = acute (wk 10) infected mice, 1 day SOM treatment, one week post treatment, RIA, untreated 297.3 ± 37.24
[11] = acute (wk 10) infected mice, 2 day SOM treatment, one week post treatment, RIA, untreated 297.3 ± 37.24, p = 0.28
[12] = chronic (wk 14) infected mice, 1 day SOM treatment, one week post treatment, RIA, untreated 206.1 ± 13.30
[13] = chronic (wk 14) infected mice, 2 day SOM treatment, one week post treatment, RIA, untreated 206.1 ± 13.30, p = 0.06 (BL)
[14] = uninfected mice (17 wks.), 2 day SOM treatment, Group 1, RIA
[15] = uninfected mice (21 wks.), 2 day SOM treatment, Group 2, RIA

Question: For octreotide, which hepatic fibrosis [1] is on record?
Answer: Its hepatic fibrosis is “reduction”.

Question: Which level at 10 min ([2]; ip, 25 μg somatostatin per mouse intraperitoneally, read-out: circulating somatostatin level in plasma at 10 minutes post injection (IP)) does the source give for `C[C@H](N)C(=O)NCC(=O)N[C@H]1CSSC[C@@H](C(=O)O)NC(=O)[C@H](CO)NC(=O)[C@H]([C@@H](C)O)NC(=O)[C@H](Cc2ccccc2)NC(=O)[C@H]([C@@H](C)O)NC(=O)[C@H](CCCCN)NC(=O)[C@H](Cc2c[nH]c3ccccc23)NC(=O)[C@H](Cc2ccccc2)NC(=O)[C@H](Cc2ccccc2)NC(=O)[C@H](CC(N)=O)NC(=O)[C@H](CCCCN)NC1=O` [somatostatin] here?
Answer: The level at 10 min was 30.2 ng/mL.

Question: And the level at 10 min ([2]; iv, 25 μg somatostatin per mouse intravenously (caudal vein), read-out: circulating somatostatin level in plasma at 10 minutes post injection (IV))?
Answer: Its level at 10 min is 17.4 ng/mL.

Question: And the “circulating somatostatin level after one hour of injection” value ([2]; 25 μg per mouse, IP or IV, one hour after injection)?
Answer: Its value is “reaches baseline control levels”.

Question: What about the “plasma profile / half-life compared with man” value [3] of the same compound?
Answer: Its value is “same profile”.

Question: What about the “change in liver weight” value ([4]; acute and chronic infected animals after 2 days of somatostatin treatment vs untreated, p = 0.19, 0.90) of the same compound?
Answer: The value was “no significant change”.

Question: And the “change in spleen weight” value ([4]; acute and chronic infected animals after 2 days somatostatin treatment vs untreated, p = 0.28, 0.73)?
Answer: The value was “no significant changes”.

Question: What about the “change in total body weight” value ([4]; acute or chronic infected animals after somatostatin treatment) of the same compound?
Answer: Its value is “no significant changes”.

Question: What about the “time stable in whole blood” value [5] of the same compound?
Answer: Its value is “up to 30 minutes”.

Question: What about the LD50 [6] of the same compound?
Answer: The LD50 was ~10,000 times the acute therapeutic dose used in humans.

Question: And the level at 168 h [7, 10]?
Answer: The level at 168 h was 0.24 ± 0.0213 ng/mL.

Question: And the level at 168 h [7, 11]?
Answer: The level at 168 h was 0.234 ± 0.0236 ng/mL.

Question: And the level at 168 h [7, 12]?
Answer: Its level at 168 h is 0.226 ± 0.00541 ng/mL.

Question: And the level at 168 h [7, 13]?
Answer: Its level at 168 h is 0.248 ± 0.0131 ng/mL.

Question: What about the level at 168 h [7, 14] of the same compound?
Answer: The level at 168 h was 0.137 ± 0.0117 ng/mL.

Question: What about the level at 168 h [7, 15] of the same compound?
Answer: Its level at 168 h is 0.152 ± 0.0415 ng/mL.

Question: What about the level at 168 h ([7]; uninfected mice, 1 day SOM treatment, Group 2, RIA) of the same compound?
Answer: Its level at 168 h is 0.132 ± 0.0193 ng/mL.

Question: And the “somatostatin level in plasma” value [7, 10]?
Answer: Its value is 240.3 pg/mL.

Question: And the “somatostatin level in plasma” value [7, 11]?
Answer: Its value is 234.2 pg/mL.

Question: And the “somatostatin level in plasma” value [7, 12]?
Answer: The value was 226.3 pg/mL.

Question: And the “somatostatin level in plasma” value [7, 13]?
Answer: The value was 247.9 pg/mL.

Question: What about the “somatostatin level in plasma” value [7, 14] of the same compound?
Answer: Its value is 136.9 pg/mL.

Question: What about the “somatostatin level in plasma” value [7, 15] of the same compound?
Answer: The value was 151.6 pg/mL.

Question: What about the “time to reach plasma plateau” value ([8]; healthy volunteers, intravenous infusion 250 μg/hour or 6 mg/24 hours) of the same compound?
Answer: Its value is at most 15 min.

Question: What about the plasma plateau level ([8]; healthy volunteers, intravenous infusion of therapeutic dose (250 μg/hour or 6 mg/24 hours)) of the same compound?
Answer: Its plasma plateau level is 300 to 3000 pg/mL.

Question: What about the half-life ([8]; in man) of the same compound?
Answer: Its half-life is 1 to 3 min.

Question: And the “toxicity of somatostatin administration” value [9]?
Answer: Its value is “little toxicity”.
